Counter-ions that a name gives are not always drawn. Like-named read-outs stand apart in the source and are kept apart here.
What was measured:
[1] = molecular target: polo-like kinase 1 (PLK1) (Homo sapiens, UniProt P53350); conditions: cited from earlier work
[2] = Gravimetric vapour sorption (GVS/DVS) hygroscopicity; format: physicochemical; conditions: for Hygroscopicity classification: weight increase from 40-80% RH (25° C.), classes of Table 9, monohydrate
Method: Sorption isotherms were obtained using a Hiden Isochema moisture sorption analyser (model IGAsorp), controlled by IGAsorp Systems Software V6.50.48. The sample was maintained at a constant temperature (25° C.) by the instrument controls. The humidity was controlled by mixing streams of dry and wet nitrogen, with a total flow of 250 ml·min^−1. The instrument was verified for relative humidity content by measuring three calibrated Rotronic salt solutions (10-50-88%). The weight change of the sample was monitored as a function of humidity by a microbalance (accuracy+/−0.005 mg). A defined amount of sample was placed in a tared mesh stainless steel basket under ambient conditions. A full experimental cycle typically consisted of three scans (sorption, desorption and sorption) at a constant temperature (25° C.) and 10% RH intervals over a 0-90% range (60 minutes for each humidity level).

Chain of polo-like kinase 1 (PLK1) (P53350 whole entry): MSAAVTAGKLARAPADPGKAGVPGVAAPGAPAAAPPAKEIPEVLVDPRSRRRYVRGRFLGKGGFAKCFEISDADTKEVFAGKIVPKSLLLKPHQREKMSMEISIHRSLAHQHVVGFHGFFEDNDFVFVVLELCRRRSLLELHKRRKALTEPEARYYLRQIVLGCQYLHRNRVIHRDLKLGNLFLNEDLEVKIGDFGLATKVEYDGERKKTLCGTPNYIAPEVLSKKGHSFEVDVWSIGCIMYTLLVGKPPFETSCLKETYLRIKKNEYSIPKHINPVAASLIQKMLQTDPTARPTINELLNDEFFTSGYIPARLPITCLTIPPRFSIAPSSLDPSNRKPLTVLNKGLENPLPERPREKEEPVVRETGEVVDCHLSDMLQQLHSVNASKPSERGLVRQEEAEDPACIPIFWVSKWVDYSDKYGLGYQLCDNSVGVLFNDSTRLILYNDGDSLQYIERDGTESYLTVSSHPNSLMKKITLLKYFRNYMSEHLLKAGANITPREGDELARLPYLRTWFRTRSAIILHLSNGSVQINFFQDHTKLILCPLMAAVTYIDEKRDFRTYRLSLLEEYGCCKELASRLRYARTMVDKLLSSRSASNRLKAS

SMILES: COc1cc(C(=O)N[C@H]2CC[C@H](N3CCN(C)CC3)CC2)ccc1Nc1ncc2c(n1)N(C1CCCC1)CC1(CC1)C(=O)N2C [Compound (I), 4-(9′-cyclopentyl-5″-methyl-6′-oxo-5′,6′,8′,9′-tetrahydrospiro[cyclopropane-1,7′-pyrimido[4,5-b][1,4]diazepine]-2′-ylamino)-N((trans)-4-(4-methylpiperazin-1-yl)cyclohexyl)-3-methoxybenzamide]
- Inhibition of PLK1 (in words) [1]: potent inhibitory activity
- Inhibition of PLK1 (in words) ([1]; listed as compound (I)): potent inhibitor

SMILES: COc1cc(C(=O)N[C@H]2CC[C@H](N3CCN(C)CC3)CC2)ccc1Nc1ncc2c(n1)N(C1CCCC1)CC1(CC1)C(=O)N2C [Monohydrochloride monohydrate]
- Hygroscopicity (in words) [2]: relatively low hygroscopicity
- Stability of the crystalline form (in words) [2]: stable crystalline form
- Weight change (%) from 40 to 80% RH @25° C. (sorption cycle by GVS) ([2]; 40-80% RH, 25° C., sorption cycle): +0.9%
- Hygroscopicity classification ([2]; listed as monohydrochloride monohydrate salt): slightly hygroscopic
- Hygroscopicity classification [2]: Slightly hygroscopic (≥0.2% and <2%)

— patent US12534466B2, “Crystalline forms of pyrimidino diazepine derivative” (CYCLACEL LIMITED, priority 2019, dated 2026)
